Reference: patent EP0345906B1, “Unique elastase induced fibrinogen cleavage site antigens” (MERCK & CO. INC., priority 1988, dated 1989)
Several values for one entry are separate records, joined by “and”; a condition that tells them apart may be missing. Identical values can stand only once.

Tests used:
whole human blood = test: In vitro production of Aα 17-21 epitope containing peptide in human blood, effect of ionophore concentration; type: cell-based; design: Aα 17-21 Epitope Containing (picomoles per ml blood): unit of the concentration uncertain; conditions: for Aα 17-21 Epitope Containing (picomoles per ml blood): 15 minutes at 37°C
Protocol: The radioimmunoassay was conducted in a total volume of 300 ml with all dilutions carried out in assay buffer, Example 6. Standard solutions were prepared at concentrations in the range of 1 x 10⁻¹⁰M to 2 x 1O⁻⁸M which represents amounts of peptide ranging from 0.01 picomoles to 2.0 picomoles in the 100 ml aliquot used in the assay. The assay included antibody-free controls to measure non-specific binding, and controls containing antibody and probe without added standard samples or unknown samples to determine the control level of peptide binding. To 100 ml of buffer, standard sample or unknown was added, 100 ml of specific antiserum from Examples 2 and 7, diluted 1:1,000 in assay buffer. This was followed by the addition of […] of radioactive probe, 125I-Tyrosyl-Aα 1-21 fibrinogen peptide, diluted in assay buffer to yield approximately 15,000 to 20,000 cpm per 100 ml aliquot. The assay was incubated overnight at 4°C and the non-antibody-bound radioactive probe was separated from antibody-bound probe by adsorption onto dextran-coated activated charcoal, see Example 7. Each assay included charcoal-free controls, to which 1 ml PBS was added for the determination of total counts. Radioactivity was determined using a gamma counter and standard techniques known in the art.
The antibody-free control and the zero-peptide antibody control were counted to determine the 0% bound and 100% bound values respectively. The assay standards are then counted and divided by the antibody control to determine the percent bound and a standard curve was generated. When the percent bound is plotted as a function of the logarithem of the amount of peptide in the standard, a sigmoidal curve is generated which is close to linear between the limits of 80% bound and 20% bound. Unknowns are counted, their percent of control calculated and they are compared to the standard curve to determine the amount of peptide present in the sample. Only those unknowns with values between 80% and 20% of control binding are considered valid.
Duplicate 1.0 ml aliquots of freshly-drawn heparinized vaccutainers containing 50 u per ml whole human blood were incubated for 15 minutes at 37°C in the presence of calcium ionophore A23187 at concentrations ranging up to 200 mM. The calcium ionophore was dissolved in dimethyl sulfoxide (DMSO) with the DMSO concentration in blood kept constant at 0.2%. Following incubation the aliquots were placed on ice, centrifuged and the plasma collected. Plasma aliquots (400 ml) were removed and placed in 12 x 75 mm glass tubes and 1200 ml chilled ethanol was added to precipitate the protein. The sample was centrifuged and 800 ml of the supernatant fluid was removed and evaporated to dryness in a Speed-vac concentrator. The sample was reconstituted to original plasma volume with 200 ml of distilled water. Duplicate […] aliquots were assayed for Aα 17-21 epitope containing peptide (Aα 1-21) as described in this Example. […]

[1] = test system: Whole Blood of PiZZ and Normal Individuals; test: A23187-stimulated production of fibrinogen cleavage peptide in blood of PiZZ and normal individuals; type: cell-based, human; design: dose or concentration left out as unconfirmed; conditions: 37° for 25 minutes, one value per individual
Protocol: Heparinized venous blood was drawn from four individuals who process the PiZZ phenotype, deficient for alpha-1 proteinase inhibitor. Blood was also collected from two normal volunteers. Calcium ionophore A23187 was added to replicate aliquots of the freshly drawn blood to a final concentration of 150 mM. The blood was incubated at 37° for 25 minutes, the plasma collected and assayed cleavage peptide.
Values are expressed as pM Aα 17-21 epitope containing peptide produced per ml of plasma. The blood samples derived from the four individuals who were genetically deficient in alpha-1 proteinase inhibitor produced greater amounts of peptide than did those derived from the normal volunteers. Under basal conditions no fibrinogen cleavage products could be detected in the blood of any of the donors.

whole blood = test: In vitro production of Aα 17-21 epitope containing peptide in whole blood, ionophore incubation time; type: cell-based, human; design: dose or concentration left out as unconfirmed
Protocol: Calcium ionophore A23187 was added to replicate 1.0 ml aliquots of freshly-drawn heparinized whole blood as described above, to a final concentration of 150 mM. Additional control aliquots of blood received DMSO at a concentration of 0.2%. The blood aliquots were incubated at 37° for various time intervals ranging up to 60 minutes. Following the incubation, plasma was prepared, processed and assayed as above.

Guinea Pig (#3) = test: Antibody specificity radioimmunoassay, guinea pig antiserum; type: binding; conditions: probe ¹⁵I-tyrosyl-Aα 1-21
[2] = test system: Rabbit antiserum prepared against the Aα 17-21 immunogen; test: Antibody specificity radioimmunoassay, rabbit antiserum; type: binding; conditions: antiserum 1:1,000; probe ¹⁵I-tyrosyl-Aα 1-21; amount in 100 ml aliquot
Protocol: Antibody specificity was determined by evaluating the ability of unlabelled peptides, specificity probes, of varying length, see Example 6, to inhibit the binding of the Aα 1-21radioactive probe. Rabbit antiserum prepared against the Aα 17-21 immunogen described in Example 2 was diluted in assay buffer, see Example 6, at a dilution of 1:1,000. The specificity peptides of Example 5 were diluted in assay buffer at concentrations ranging from 1.6 x 10⁻¹⁰ M to 1 x 10⁻⁵ M. One hundred ml of each dilution was added to 100 ml of antiserum and 100 ml of radioactive probe. This represents specificity probe peptide in concentrations ranging from 0.016 picomoles to 1.0 nanomoles in the 100 ml aliquot used in the assay. The radioactive probe […], see Example 5, was diluted in assay buffer to yield approximately 20,000 cpm per 100 ml aliquot, the amount used per sample or control. The assay was set up in a volume of 300 ml, with the volume made up where necessary with assay buffer. […]
The antibody-free control and the zero-peptide antibody control are counted to determine the 0% bound and the 100% bound values respectively. Radioactivity was determined using a gamma counter and standard techniques known in the art. The samples containing the test peptides are then counted and the amount of radioactivity associated with the antibody-free control subtracted from each. […]

CNc1ccc2oc(C[C@H]3O[C@@]4(CC[C@H]3C)O[C@H]([C@H](C)C(=O)c3ccc[nH]3)[C@H](C)C[C@H]4C)nc2c1C(=O)O [A23187]
Aα 17-21 Epitope Containing (picomoles per ml blood) (whole human blood; Ionophore Concentration 5 (unit uncertain)): 1.2 picomoles per ml blood | Aα 17-21 Epitope Containing (picomoles per ml blood) (whole human blood; Ionophore Concentration 15 (unit uncertain)): 1.6 picomoles per ml blood | Aα 17-21 Epitope Containing (picomoles per ml blood) (whole human blood; Ionophore Concentration 25 (unit uncertain)): 2.6 picomoles per ml blood | Aα 17-21 Epitope Containing (picomoles per ml blood) (whole human blood; Ionophore Concentration 50 (unit uncertain)): 2.8 picomoles per ml blood | Aα 17-21 Epitope Containing (picomoles per ml blood) (whole human blood; Ionophore Concentration 100 (unit uncertain)): 4.0 picomoles per ml blood | Aα 17-21 Epitope Containing (picomoles per ml blood) (whole human blood; Ionophore Concentration 150 (unit uncertain)): 4.1 picomoles per ml blood | Aα 17-21 Epitope Containing (picomoles per ml blood) (whole human blood; Ionophore Concentration 200 (unit uncertain)): 3.8 picomoles per ml blood | concentration giving optimal production of Aα 17-21 epitope-containing peptide (whole human blood; whole human blood): 150 mM | Aα 17-21 epitope containing peptide produced per ml of plasma, A23187 ([1]; Normal individuals): 4.2 pM per ml of plasma and 4.6 pM per ml of plasma | Aα 17-21 epitope containing peptide produced per ml of plasma, A23187 ([1]; PiZZ individuals): 8.4 pM per ml of plasma and 26.5 pM per ml of plasma and 20.5 pM per ml of plasma and 17.8 pM per ml of plasma | Aα 17-21 Epitope (picomoles/ml plasma) (whole blood; Incubation Time 2.5 minutes): 2.3 picomoles/ml plasma | Aα 17-21 Epitope (picomoles/ml plasma) (whole blood; Incubation Time 7.5 minutes): 2.8 picomoles/ml plasma | Aα 17-21 Epitope (picomoles/ml plasma) (whole blood; Incubation Time 10.0 minutes): 3.5 picomoles/ml plasma | Aα 17-21 Epitope (picomoles/ml plasma) (whole blood; Incubation Time 15.0 minutes): 3.7 picomoles/ml plasma | Aα 17-21 Epitope (picomoles/ml plasma) (whole blood; Incubation Time 20.0 minutes): 3.7 picomoles/ml plasma | Aα 17-21 Epitope (picomoles/ml plasma) (whole blood; Incubation Time 25.0 minutes): 3.8 picomoles/ml plasma | Aα 17-21 Epitope (picomoles/ml plasma) (whole blood; Incubation Time 30.0 minutes): 3.8 picomoles/ml plasma | Aα 17-21 Epitope (picomoles/ml plasma) (whole blood; Incubation Time 40.0 minutes): 3.6 picomoles/ml plasma | Aα 17-21 Epitope (picomoles/ml plasma) (whole blood; Incubation Time 50.0 minutes): 3.1 picomoles/ml plasma | Aα 17-21 Epitope (picomoles/ml plasma) (whole blood; Incubation Time 60.0 minutes): 3.2 picomoles/ml plasma | Aα 17-21 Epitope (picomoles/ml plasma) (whole blood; Incubation Time <1.0 minutes): 0.7 picomoles/ml plasma

Gly-Pro-Arg-Val-Val (GPRVV; printed: Gly-Pro-Arg-Val-Val) [Aα 17-21]
Inhibitory Concentration (IC₅₀) picomoles Guinea Pig (#3) (Guinea Pig (#3)): 10 picomoles | Inhibitory Concentration (IC₅₀) picomoles Rabbit (#20) [2]: 1.6 picomoles
